Usually IC50 stands for the concentration that inhibits the measured activity by half.

For this assay, the target named is Programmed cell death 1 ligand 1 (Homo sapiens, UniProt Q9NZQ7). Description: Binding affinity to His-tagged PD-L1 (unknown origin) assessed as inhibition of interaction with PD1 preincubated for 15 mins followed by PD1 addition measured after 15 mins by HTRF assay.
Programmed cell death 1 ligand 1, sequence (Q9NZQ7 whole entry): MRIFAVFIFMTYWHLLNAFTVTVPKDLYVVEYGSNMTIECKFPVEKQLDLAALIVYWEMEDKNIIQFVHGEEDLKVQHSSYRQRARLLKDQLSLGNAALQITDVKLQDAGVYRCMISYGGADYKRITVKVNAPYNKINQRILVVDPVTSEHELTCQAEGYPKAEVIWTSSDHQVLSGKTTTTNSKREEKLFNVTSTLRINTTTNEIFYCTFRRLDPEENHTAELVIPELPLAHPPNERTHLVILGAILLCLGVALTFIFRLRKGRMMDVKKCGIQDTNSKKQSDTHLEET

On to `COc1cc(OCc2cccc(-c3ccccc3)c2C#N)cc(OC)c1CN1CCCC[C@H]1C(=O)O`, for which the IC50 is 6 nM. Consider `Cc1cc(CN2CCC(C(=O)NCCO)CC2)ccc1OCc1cccc(-c2ccccc2)c1C`, for which the IC50 worked out at 110 nM.

For the origin of these results see ChEMBL document CHEMBL3580542, “Inhibitors of the PD-1/PD-L1 Pathway Can Mobilize the Immune System: An Innovative Potential Therapy for Cancer and Chronic Infections” (ACS Med Chem Lett, 2015).
